In the supplement of paper PMC8967900:

Legend:
Assay in all cases: selective drug sensitivity score (sDSS, relative to normal bone marrow) (sDSS (score)); higher = more potent and effective on the cell line relative to normal bone marrow cells
Conditions in all cases: 72 h
[1] = tested on: TANOUE
[2] = tested on: DND-41
[3] = tested on: SEM cells
[4] = tested on: LC4-1
[5] = tested on: NALL-1
[6] = tested on: KARPAS-45
[7] = tested on: PEER
[8] = tested on: KOPN-8
[9] = tested on: MOLT-4
[10] = tested on: MHH-CALL-4
[11] = tested on: HPB-ALL
[12] = tested on: 697
[13] = tested on: TMD5
[14] = tested on: COG-LL-317
[15] = tested on: ALL-SIL
[16] = tested on: P12-ICHIKAWA
[17] = tested on: COG-LL-332h
[18] = tested on: KASUMI-2
[19] = tested on: COG-LL-355h
[20] = tested on: MOLT-14
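Also: ALL cell lines in 384-well plates, five doses spanning 10,000-fold, each plate scaled between vehicle and 100 µmol/L benzalkonium chloride controls, sDSS an adapted area-under-curve metric.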

Compound | selective drug sensitivity score [1] | selective drug sensitivity score [2] | selective drug sensitivity score [3] | selective drug sensitivity score [4] | selective drug sensitivity score [5] | selective drug sensitivity score [6] | selective drug sensitivity score [7] | selective drug sensitivity score [8] | selective drug sensitivity score [9] | selective drug sensitivity score [10] | selective drug sensitivity score [11] | selective drug sensitivity score [12] | selective drug sensitivity score [13] | selective drug sensitivity score [14] | selective drug sensitivity score [15] | selective drug sensitivity score [16] | selective drug sensitivity score [17] | selective drug sensitivity score [18] | selective drug sensitivity score [19] | selective drug sensitivity score [20]
O=c1sn(-c2cccc3ccccc23)c(=O)n1Cc1ccccc1 [Tideglusib] (top concentration 3000 nM) | -0.3 | 3.4 | -0.3 | -0.3 | -0.3 | -0.3 | -0.3 | -0.3 | -0.3 | 0.9 | -0.3 | -0.3 | -0.3 | -0.3 | 3.7 | -0.3 | -0.3 | -0.3 | -0.3 | -0.3
COc1cc2nccc(Oc3ccc(NC(=O)Nc4cc(C)on4)c(Cl)c3)c2cc1OC [Tivozanib] (top concentration 10000 nM) | -3.64 | 0.36 | 4.76 | 5.96 | -1.74 | 3.86 | 12.2 | 9.06 | 3.46 | -2.44 | -0.44 | 5.16 | 5.66 | 0.86 | 27 | 2.66 | 12.2 | 4.96 | -1.04 | 4.46
Cc1cc(Nc2cc(N3CCN(C)CC3)nc(Sc3ccc(NC(=O)C4CC4)cc3)n2)n[nH]1 [Tozasertib] (top concentration 10000 nM) | -6.64 | 0.36 | 22.3 | 20.6 | 19.8 | 8.56 | 22.6 | 19.1 | 15.6 | 4.66 | 7.46 | 23.2 | 14.8 | 21.6 | 22.4 | 22.8 | 19.9 | 12.3 | 2.96 | 20.9
CC1=C(/C=C/C(C)=C/C=C/C(C)=C/C(=O)O)C(C)(C)CCC1 [Tretinoin] (top concentration 10000 nM) | -2.4 | -2.4 | 0 | -2.4 | -2.4 | -1.8 | -2.4 | 0.4 | -2.4 | -2.4 | -1.7 | -1.1 | -2.4 | -1.8 | -2.4 | -2.4 | -2.4 | -2.4 | -1 | -2.4
COC(=O)c1ccc2c(c1)[nH]c1ncnc(NCCCN3CCCCC3)c12 [UM729] (top concentration 10000 nM) | -0.06 | 0.64 | 2.14 | 1.54 | -0.06 | 2.34 | 1.84 | 2.84 | 2.04 | 0.44 | 0.64 | 1.64 | -0.06 | 0.94 | 1.44 | -0.06 | 1.94 | -0.06 | 1.44 | 3.94
COc1cc2c(NC3CCN(C(C)C)CC3)nc(N3CCC(F)(F)CC3)nc2cc1OCCCN1CCCC1 [UNC0642] (top concentration 10000 nM) | -3.74 | 5.56 | -0.14 | -1.14 | -0.74 | 3.56 | -0.74 | -0.74 | -3.44 | 1.46 | -2.84 | 0.76 | -0.84 | 1.66 | -0.04 | -0.14 | 1.46 | -0.84 | 4.36 | -1.24
O=C(c1ccc(C(=O)N2CCC(N3CCCC3)CC2)c(Nc2ccccc2)c1)N1CCC(N2CCCC2)CC1 [UNC1215] (top concentration 10000 nM) | 0 | 0 | 0 | 0 | 0 | 0 | 0 | 0 | 0 | 0 | 0 | 0 | 0 | 0 | 0.4 | 0 | 0 | 0 | 0 | 0
CCCC(CCC)C(=O)O [Valproic_acid] (top concentration 1000000 nM) | 0 | 0 | 0 | 0 | 0 | 0 | 0 | 0 | 0 | 0 | 0 | 0 | 0 | 0 | 0 | 0 | 0 | 0 | 0 | 0
Clc1ccc(Nc2nnc(Cc3ccncc3)c3ccccc23)cc1 [Vatalanib] (top concentration 10000 nM) | 0 | 0 | 0 | 0 | 0 | 0 | 0.7 | 0 | 0 | 0.1 | 0 | 0 | 0 | 0.5 | 0.1 | 0 | 0.7 | 0 | 0 | 0
CCCS(=O)(=O)Nc1ccc(F)c(C(=O)c2c[nH]c3ncc(-c4ccc(Cl)cc4)cc23)c1F [Vemurafenib] (top concentration 10000 nM) | -1.14 | 3.66 | 3.26 | 3.56 | -0.34 | 4.16 | 2.56 | 6.56 | 2.26 | -0.94 | -0.44 | 5.16 | 1.26 | 3.26 | 3.06 | 4.16 | 2.96 | -1.14 | 0.86 | 2.66
